Data set [1] is described as follows: Selectivity index, ratio of IC50 for equine serum BuChE to IC50 for electric eel AChE.
The next data set addresses Cholinesterase (Equus caballus, UniProt P81908).
In the next data set the target is Acetylcholinesterase (Electrophorus electricus, UniProt O42275). Description: Inhibition of electric eel AChE using […] as substrate by Ellman's method.
Data set [2] is described as follows: Lipophilicity, log D of the compound at pH 7.4 by UV-metric/potentiometric method. In kind it is physicochemical. Particulars: buffer.
A short description of data set [3]: Lipophilicity, log P of the compound by UV-metric/potentiometric method. In kind it is physicochemical. Particulars: octanol/water.
The nature of data set [4]: Dissociation constant, pKa of the compound by UV-metric/potentiometric method. Type of data set: physicochemical.
In data set [5] the target is Acetylcholinesterase (Electrophorus electricus) (UniProt O42275). As to the kind of experiment: Mixed type inhibition of electric eel AChE using […] as substrate by Lineweaver-Burk plot analysis.

Structures are written as SMILES. The source made the active and inactive calls. No cut-off for these calls is given here.

Sequence of Cholinesterase (P81908 whole entry): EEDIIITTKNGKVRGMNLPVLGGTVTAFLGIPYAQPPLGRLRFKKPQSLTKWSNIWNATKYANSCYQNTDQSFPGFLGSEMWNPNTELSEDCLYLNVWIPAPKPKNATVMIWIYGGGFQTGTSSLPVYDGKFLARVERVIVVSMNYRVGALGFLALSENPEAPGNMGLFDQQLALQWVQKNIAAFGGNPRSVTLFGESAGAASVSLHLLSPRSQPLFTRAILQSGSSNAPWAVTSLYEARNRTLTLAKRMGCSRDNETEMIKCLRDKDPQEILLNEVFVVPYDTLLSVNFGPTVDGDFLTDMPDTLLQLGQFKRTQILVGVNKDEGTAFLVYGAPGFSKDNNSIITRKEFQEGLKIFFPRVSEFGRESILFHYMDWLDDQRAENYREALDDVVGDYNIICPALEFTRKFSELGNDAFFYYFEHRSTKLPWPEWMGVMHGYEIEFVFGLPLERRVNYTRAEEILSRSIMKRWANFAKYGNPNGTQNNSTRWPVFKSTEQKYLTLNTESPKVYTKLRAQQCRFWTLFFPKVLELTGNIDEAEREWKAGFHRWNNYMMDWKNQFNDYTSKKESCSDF
Sequence of Acetylcholinesterase (O42275 whole entry): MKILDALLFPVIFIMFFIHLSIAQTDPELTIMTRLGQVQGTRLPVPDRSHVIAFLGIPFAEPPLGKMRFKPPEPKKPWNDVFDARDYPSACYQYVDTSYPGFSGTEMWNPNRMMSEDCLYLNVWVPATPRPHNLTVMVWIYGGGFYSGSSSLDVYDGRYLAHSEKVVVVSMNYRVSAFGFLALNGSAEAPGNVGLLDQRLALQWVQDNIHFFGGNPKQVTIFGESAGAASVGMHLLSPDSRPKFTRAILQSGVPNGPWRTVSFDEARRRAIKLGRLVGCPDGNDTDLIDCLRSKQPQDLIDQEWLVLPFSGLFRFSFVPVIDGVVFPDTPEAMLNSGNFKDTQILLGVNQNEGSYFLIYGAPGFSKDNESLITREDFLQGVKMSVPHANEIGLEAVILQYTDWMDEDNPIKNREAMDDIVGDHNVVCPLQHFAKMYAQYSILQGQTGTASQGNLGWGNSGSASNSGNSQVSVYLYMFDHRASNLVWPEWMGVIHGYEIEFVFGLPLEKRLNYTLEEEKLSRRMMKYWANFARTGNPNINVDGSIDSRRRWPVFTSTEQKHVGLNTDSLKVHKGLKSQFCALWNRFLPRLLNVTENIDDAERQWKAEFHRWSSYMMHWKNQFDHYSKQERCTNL
Sequence of Acetylcholinesterase (Electrophorus electricus) (O42275 24-633 limits assumed): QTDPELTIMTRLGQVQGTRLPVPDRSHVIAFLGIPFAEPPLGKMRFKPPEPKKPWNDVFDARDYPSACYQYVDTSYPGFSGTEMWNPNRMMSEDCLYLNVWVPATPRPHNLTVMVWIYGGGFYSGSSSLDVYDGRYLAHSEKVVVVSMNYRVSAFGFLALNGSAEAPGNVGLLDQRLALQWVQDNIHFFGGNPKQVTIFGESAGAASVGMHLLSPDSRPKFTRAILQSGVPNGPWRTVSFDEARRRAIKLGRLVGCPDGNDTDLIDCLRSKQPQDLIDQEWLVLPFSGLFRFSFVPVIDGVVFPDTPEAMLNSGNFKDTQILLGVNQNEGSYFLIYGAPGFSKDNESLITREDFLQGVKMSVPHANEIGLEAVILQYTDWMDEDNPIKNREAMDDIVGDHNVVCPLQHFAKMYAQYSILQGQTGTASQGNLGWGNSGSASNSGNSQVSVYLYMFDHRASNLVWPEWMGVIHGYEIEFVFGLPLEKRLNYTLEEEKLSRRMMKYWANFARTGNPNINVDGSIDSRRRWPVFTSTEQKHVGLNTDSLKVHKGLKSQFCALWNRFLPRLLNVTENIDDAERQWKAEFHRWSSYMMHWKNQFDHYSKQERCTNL

For `COc1cccc(C[n+]2ccc(/C=C3\OCc4c(ccc(OC)c4OC)C3=O)cc2)c1`, in data set [1], the Ratio IC50 came out at 7. Moreover, the results for the IC50 on Cholinesterase and against Acetylcholinesterase were 3.06 µM and 441 nM, respectively.
In the same order, the values of `COc1ccc2c(c1OC)CO/C(=C\c1cc[n+](Cc3ccccc3[N+](=O)[O-])cc1)C2=O` are 41.6, 20.9 µM and 503 nM.
In the same order, the values of `COc1ccc2c(c1OC)CO/C(=C\c1cc[n+](Cc3ccc(Cl)cc3)cc1)C2=O` are 5.5, 3.56 µM and 646 nM.
For `COc1ccc2c(c1OC)CO/C(=C\c1cc[n+](Cc3cccc(Cl)c3)cc1)C2=O`, the Ratio IC50 in data set [1] came out at 142. The IC50 on Cholinesterase came to 9.92 µM; against Acetylcholinesterase, 69.7 nM.
As to `COc1ccc2c(c1OC)CO/C(=C\c1cc[n+](Cc3ccccc3F)cc1)C2=O`, the Ratio IC50 in data set [1] came to 209. Also, the values for the half-inhibitory concentration (IC50) on Cholinesterase and on Acetylcholinesterase were 4.41 µM and 21.1 nM, respectively.
Take `COc1ccc2c(c1OC)CO/C(=C\c1cc[n+](Cc3ccc([N+](=O)[O-])cc3)cc1)C2=O`: the IC50 was > 100 µM on Cholinesterase and 3550 nM against Acetylcholinesterase.
`COc1ccc2c(c1OC)CO/C(=C\c1cc[n+](Cc3ccccc3)cc1)C2=O`: the Ratio IC50 in data set [1] turned out to be 153. Also, the logD in data set [2] was 1.28. In data set [3], this compound showed a logP of 2.53. The pKa in data set [4] worked out at 8.68. Also, the IC50 worked out at 6.87 µM against Cholinesterase and 44.8 nM at Acetylcholinesterase.
For the compound `COc1ccc(C[n+]2ccc(/C=C3\OCc4c(ccc(OC)c4OC)C3=O)cc2)cc1`, the Ratio IC50 in data set [1] came out at 3.6. The half-inhibitory concentration (IC50) was 4.33 µM against Cholinesterase and 1190 nM against Acetylcholinesterase.
In the same order, the values of `COc1ccc2c(c1OC)CO/C(=C\c1cc[n+](Cc3cccc([N+](=O)[O-])c3)cc1)C2=O` are 64, 29.2 µM and 456 nM.
In the case of `COc1ccc2c(c1OC)CO/C(=C\c1cc[n+](Cc3ccccc3Cl)cc1)C2=O`, the Ratio IC50 in data set [1] amounted to 229. Besides, the logD in data set [2] is 1.96. This compound displayed a logP in data set [3] of 3.2. In data set [4], this compound showed a pKa of 8.62. The values for the 50% inhibitory concentration (IC50) against Cholinesterase and at Acetylcholinesterase were 3.64 µM and 15.9 nM, respectively.
For the compound `COc1ccccc1C[n+]1ccc(/C=C2\OCc3c(ccc(OC)c3OC)C2=O)cc1`, the Ratio IC50 in data set [1] worked out at 13. The IC50 against Cholinesterase is 8.79 µM; at Acetylcholinesterase, 640 nM.
In the same order, the values of `COc1ccc2c(c1OC)CO/C(=C\c1cc[n+](Cc3cccc(F)c3)cc1)C2=O` are 359, 9.44 µM and 26.3 nM.
With `COc1ccc2c(c1OC)CO/C(=C\c1cc[n+](Cc3ccc(F)cc3)cc1)C2=O`, in data set [1], the Ratio IC50 amounted to 232. In addition, the inhibition result in data set [5] was “Active”. The logD in data set [2] is 1.45. Moreover, the logP in data set [3] was found to be 2.84. Also, the pKa in data set [4] worked out at 8.79. For the same compound, the IC50 on Cholinesterase came out at 2.07 µM; against Acetylcholinesterase, 8.93 nM.

(Values after ChEMBL document CHEMBL3627657, “Design, synthesis, biological evaluation and docking study of 4-isochromanone hybrids bearing N-benzyl pyridinium moiety as dual binding site acetylcholinesterase inhibitors” (Bioorg Med Chem Lett, 2015).)
